Laboratory results from patent publication US4285941A, “Cephalosporin compounds and antibacterial drugs containing the same” (Eisai Co., Ltd., priority 1979, dated 1981).
Where a name gives a salt, the structure may show the parent alone. Blank lines part the entries; values can stand above or below the compound they belong to.

Experiments:
Escherichia coli NIHJ = test: Minimal inhibitory concentration (MIC), standard agar dilution method; format: cell-based; settings: Mueller Hinton agar, 37° C., 18 hours, Examples 1, 2, 4, 5, 6, 8 and 22 as sodium salts, others as free carboxylic acids
Method: (§1) The compounds obtained in these examples were tested for their antibacterial activities in vitro. Minimal inhibitory concentration (MIC) was determined by the standard agar dilution method of the Japan Society of Chemotherapy. Compounds were dissolved in appropriate solvents (sterilized water for sodium salts and acetone-water [1:1] for free acids) and serial two-fold dilutions were made. Sodium salt of Cefazolin was chosen as the control compound. One-ml aliquots of each dilution were mixed with 9 ml of Mueller Hinton agar in petri-dishes to make agar plates containing the compound at serially diluted concentrations. After agar hardened, plates were put in an incubator at 37° C. for 1.5-2 hours with the lids slightly open to evaporate acetone off the plates. Test organisms were grown for 18 hours at 37° C. in Trypticase Soy broth and diluted in saline to approximately 10^6 colony forming units per ml. A loopful of each cell suspension was applied on the agar plate mentioned above and the plates were incubated for 18 hours at 37° C. before MIC was determined. MIC values of the compounds of Examples 1, 2, 4, 5, 6, 8 and 22 were determined as their sodium salts and those of other compounds as free carboxylic acids.

[1] = test system: Klebsiella pneumoniae EK-6; test: as above; format: cell-based; settings: EK6, Mueller Hinton agar, 37° C., 18 hours, Examples 1, 2, 4, 5, 6, 8 and 22 as sodium salts, others as free carboxylic acids
Method: as §1

Proteus morganii EP-14 = test: as above; format: cell-based; settings: Morganella morganii, EP14; Mueller Hinton agar, 37° C., 18 hours; Examples 1, 2, 4, 5, 6, 8 and 22 as sodium salts, others as free carboxylic acids
Method: as §1

[2] = test system: Pseudomonas aeruginosa EP-172; test: as above; format: cell-based; settings: EP172, Mueller Hinton agar, 37° C., 18 hours, Examples 1, 2, 4, 5, 6, 8 and 22 as sodium salts, others as free carboxylic acids
Method: as §1

[3] = test system: Serratia marcescens ES-75; test: as above; format: cell-based; settings: ES75, Mueller Hinton agar, 37° C., 18 hours, Examples 1, 2, 4, 5, 6, 8 and 22 as sodium salts, others as free carboxylic acids
Method: as §1

[4] = test system: Staphylococcus aureus 209-P; test: as above; format: cell-based; settings: Mueller Hinton agar, 37° C., 18 hours, Examples 1, 2, 4, 5, 6, 8 and 22 as sodium salts, others as free carboxylic acids
Method: as §1

[5] = Acute toxicity (LD50, mouse, oral); settings: in vivo
Text: The acute toxicity values [LD50 (mouse, oral)] for the following compounds, for example, were over 5 g/kg: […]

- MIC (Escherichia coli NIHJ): 0.8 µg/mL
- MIC [1]: ≤ 0.1 µg/mL
- MIC (Proteus morganii EP-14): 50 µg/mL
- MIC [2]: 1.56 µg/mL
- MIC [3]: 0.2 µg/mL
- MIC [4]: 0.8 µg/mL
Compound: O=C(O)C1=C(CSc2ncccn2)CS[C@@H]2[C@H](NC(=O)[C@H](NC(=O)c3coc4cc(O)c(O)cc4c3=O)c3ccc(O)cc3)C(=O)N12 [Example 26, 7β-[D-2-(6,7-Dihydroxychromone-3-carboxamido)-2-(4-hydroxyphenyl)acetamido]-3-(2-pyrimidinylthiomethyl)-3-cephem-4-carboxylic acid]

- MIC (Escherichia coli NIHJ): 0.4 µg/mL
- MIC [1]: ≤ 0.1 µg/mL
- MIC (Proteus morganii EP-14): 50 µg/mL
- MIC [2]: 1.56 µg/mL
- MIC [3]: 0.2 µg/mL
- MIC [4]: 0.8 µg/mL
Compound: Cc1nnc(SCC2=C(C(=O)O)N3C(=O)[C@@H](NC(=O)[C@H](NC(=O)c4coc5cc(O)c(O)cc5c4=O)c4ccc(O)cc4)[C@H]3SC2)o1 [Example 27, 7β-[D-2-(6,7-Dihydroxychromone-3-carboxamido)-2-(4-hydroxyphenyl)acetoamido]-3-[(5-methyl-1,3,4-oxadiazol-2-yl)thiomethyl]-3-cephem-4-carboxylic acid]

- MIC (Escherichia coli NIHJ): 3.13 µg/mL
- MIC [1]: ≤ 0.1 µg/mL
- MIC (Proteus morganii EP-14): 50 µg/mL
- MIC [2]: 0.4 µg/mL
- MIC [3]: 0.8 µg/mL
- MIC [4]: 3.13 µg/mL
Compound: Cn1nnnc1SCC1=C(C(=O)O)N2C(=O)[C@@H](NC(=O)[C@H](NC(=O)c3coc4c(O)c(O)c(O)cc4c3=O)c3ccc(O)cc3)[C@H]2SC1 [Example 28, 7β-[D-2-(6,7,8-Trihydroxychromone-3-carboxamido)-2-(4-hydroxyphenyl)acetamido]-3-[(1-methyltetrazol-5-yl)thiomethyl]-3-cephem-4-carboxylic acid]

- MIC (Escherichia coli NIHJ): 0.8 µg/mL
- MIC [1]: ≤ 0.1 µg/mL
- MIC (Proteus morganii EP-14): 50 µg/mL
- MIC [2]: 0.8 µg/mL
- MIC [3]: 0.8 µg/mL
- MIC [4]: 12.5 µg/mL
Compound: O=C(O)Cn1nnnc1SCC1=C(C(=O)O)N2C(=O)[C@@H](NC(=O)[C@H](NC(=O)c3coc4c(O)c(O)c(O)cc4c3=O)c3ccc(O)cc3)[C@H]2SC1 [Example 30, 7β-[D-2-(6,7,8-Trihydroxychromone-3-carboxamido)-2-(4-hydroxyphenyl)acetamido]-3-[(1-carboxymethyltetrazol-5-yl)thiomethyl]-3-cephem-4-carboxylic acid]

- MIC (Escherichia coli NIHJ): 1.56 µg/mL
- MIC [1]: 1.56 µg/mL
- MIC (Proteus morganii EP-14): > 100 µg/mL
- MIC [2]: > 100 µg/mL
- MIC [3]: > 100 µg/mL
- MIC [4]: 0.4 µg/mL
Compound: Cc1nnc(SCC2=C(C(=O)O)N3C(=O)[C@@H](NC(=O)Cn4cnnn4)[C@H]3SC2)s1 [Sodium salt of Cefazolin, reference compound]

The remaining lines, values behind:

Compound: Cn1nnnc1SCC1=C(C(=O)O)N2C(=O)[C@@H](NC(=O)[C@H](NC(=O)c3coc4cc(O)c(O)cc4c3=O)c3ccccc3)[C@H]2SC1 [Example 1, Sodium salt of 7β-[D-2-(6,7-dihydroxychromone-3-carboxamido)-2-phenylacetamido]-3-[(1-methyltetrazol-5-yl)-thiomethyl]-3-cephem-4-carboxylic acid]
- MIC (Escherichia coli NIHJ): 0.4 µg/mL
- MIC [1]: ≤ 0.1 µg/mL
- MIC (Proteus morganii EP-14): 0.4 µg/mL
- MIC [2]: 0.8 µg/mL
- MIC [3]: ≤ 0.1 µg/mL
- MIC [4]: 1.56 µg/mL
- LD50 [5]: > 5000 mg/kg

Compound: Cc1nnc(SCC2=C(C(=O)O)N3C(=O)[C@@H](NC(=O)[C@H](NC(=O)c4coc5cc(O)c(O)cc5c4=O)c4ccc(O)cc4)[C@H]3SC2)s1 [Example 4, Sodium salt of 7β-[D-2-(6,7-dihydroxychromone-3-carboxamido)-2-(4-hydroxyphenyl)acetamido]-3-[(5-methyl-1,3,4-thiadiazol-2-yl)thiomethyl]-3-cephem-4-carboxylicacid]
- MIC (Escherichia coli NIHJ): 0.8 µg/mL
- MIC [1]: ≤ 0.1 µg/mL
- MIC (Proteus morganii EP-14): 1.56 µg/mL
- MIC [2]: 1.56 µg/mL
- MIC [3]: ≤ 0.1 µg/mL
- MIC [4]: 1.56 µg/mL
- LD50 [5]: > 5000 mg/kg

Compound: CC(=O)Oc1cc2occ(C(=O)N[C@@H](C(=O)N[C@@H]3C(=O)N4C(C(=O)O)=C(CSc5nnnn5C)CS[C@H]34)c3ccccc3)c(=O)c2cc1OC(C)=O [Example 5, Sodium salt of 7β-[D-2-(6,7-diacetoxychromone-3-carboxamido)-2-phenylacetamido]-3-[(1-methyltetrazol-5-yl)thiomethyl]-3-cephem-4-carboxylic acid]
- MIC (Escherichia coli NIHJ): 0.2 µg/mL
- MIC [1]: ≤ 0.1 µg/mL
- MIC (Proteus morganii EP-14): 0.4 µg/mL
- MIC [2]: 0.4 µg/mL
- MIC [3]: ≤ 0.1 µg/mL
- MIC [4]: 1.56 µg/mL
- LD50 [5]: > 5000 mg/kg

Compound: O=C(O)C1=C(CSc2ccccn2)CS[C@@H]2[C@H](NC(=O)[C@H](NC(=O)c3coc4cc(O)c(O)cc4c3=O)c3ccc(O)cc3)C(=O)N12 [Example 24, 7β-[D-2-(6,7-Dihydroxychromone-3-carboxamido)-2-(4-hydroxyphenyl)acetamido]-3-(2-pyridylthiomethyl)-3-cephem-4-carboxylic acid]
- MIC (Escherichia coli NIHJ): 0.4 µg/mL
- MIC [1]: ≤ 0.1 µg/mL
- MIC (Proteus morganii EP-14): 25 µg/mL
- MIC [2]: 0.8 µg/mL
- MIC [3]: ≤ 0.1 µg/mL
- MIC [4]: 0.8 µg/mL

Compound: O=C(O)C1=C(CSc2cccc[n+]2[O-])CS[C@@H]2[C@H](NC(=O)[C@H](NC(=O)c3coc4cc(O)c(O)cc4c3=O)c3ccc(O)cc3)C(=O)N12 [Example 25, 7β-[D-2-(6,7-Dihydroxychromone-3-carboxamido)-2-(4-hydroxyphenyl)acetamido]-3-[2-(pyridyl-1-oxido)thiomethyl]-3-cephem-4-carboxylic acid]
- MIC (Escherichia coli NIHJ): 0.8 µg/mL
- MIC [1]: ≤ 0.1 µg/mL
- MIC (Proteus morganii EP-14): 25 µg/mL
- MIC [2]: 0.8 µg/mL
- MIC [3]: 0.2 µg/mL
- MIC [4]: 1.56 µg/mL

Compound: CC(=O)Oc1cc2c(=O)c(C(=O)N[C@@H](C(=O)N[C@@H]3C(=O)N4C(C(=O)O)=C(CSc5nnnn5C)CS[C@H]34)c3ccc(O)cc3)coc2c(OC(C)=O)c1OC(C)=O [Example 29, 7β-[D-2-(6,7,8-Triacetoxychromone-3-carboxamido)-2-(4-hydroxyphenyl)acetamido]-3-[(1-methyltetrazol-5-yl)thiomethyl]-3-cephem-4-carboxylic acid]
- MIC (Escherichia coli NIHJ): 1.56 µg/mL
- MIC [1]: ≤ 0.1 µg/mL
- MIC (Proteus morganii EP-14): 12.5 µg/mL
- MIC [2]: 0.4 µg/mL
- MIC [3]: 0.4 µg/mL
- MIC [4]: 1.56 µg/mL

Compound: CC(=O)Oc1cc2c(=O)c(C(=O)N[C@@H](C(=O)N[C@@H]3C(=O)N4C(C(=O)O)=C(CSc5nnnn5CC(=O)O)CS[C@H]34)c3ccc(O)cc3)coc2c(OC(C)=O)c1OC(C)=O [Example 31, 7β-[D-2-(6,7,8-Triacetoxychromone-3-carboxamido)-2-(4-hydroxyphenyl)acetamido]-3-[(1-carboxymethyltetrazol-5-yl)thiomethyl]-3-cephem-4-carboxylicacid]
- MIC (Escherichia coli NIHJ): 0.8 µg/mL
- MIC [1]: ≤ 0.1 µg/mL
- MIC (Proteus morganii EP-14): 25 µg/mL
- MIC [2]: 0.8 µg/mL
- MIC [3]: 0.8 µg/mL
- MIC [4]: 12.5 µg/mL
